Results as given in ChEMBL document CHEMBL5360653, “Marine Alkaloid Lepadins E and H Induce Ferroptosis for Cancer Chemotherapy” (J Med Chem, 2023).
Active and inactive are the calls of the source. The rule behind the calls is not given here.

Experiments:
HeLa [1] = assay: Induction of apoptosis in human HeLa cells assessed as necrotic cells incubated at 10 uM for 24 hrs measured by annexin V-PI staining based FITC analysis (reference value: 0.58%); type: functional
HeLa [2] = assay: Induction of apoptosis in human HeLa cells assessed as early apoptotic cells incubated at 10 uM for 24 hrs measured by annexin V-PI staining based FITC analysis (reference value: 3.28%); type: functional
HeLa [3] = assay: Induction of ferroptosis in human HeLa cells assessed as decrease in cellular GSH level measured at 6 uM for 24 hrs by transmission electron microscopic analysis; type: functional, cell-based
HeLa [4] = assay: Induction of apoptosis in human HeLa cells assessed as early apoptotic cells preincubated with PFTalpha followed by compound addition at 10 uM for 24 hrs measured by annexin V-PI staining based FITC analysis (reference value: 3.28%); type: functional
HeLa [5] = assay: Induction of apoptosis in human HeLa cells assessed as necrotic cells preincubated with PFTalpha followed by compound addition at 10 uM for 24 hrs measured by annexin V-PI staining based FITC analysis (reference value: 1.6%); type: functional
HeLa [6] = assay: Induction of apoptosis in human HeLa cells assessed as early apoptotic cells incubated at 10 uM for 24 hrs measured by annexin V-PI staining based FITC analysis (reference value: 3.94%); type: functional
HeLa [7] = assay: Induction of apoptosis in human HeLa cells assessed as late apoptotic cells incubated at 10 uM for 24 hrs measured by annexin V-PI staining based FITC analysis (reference value: 3.45%); type: functional
HeLa [8] = assay: Induction of ferroptosis in human HeLa cells assessed as downregulation of GPX4 level measured at 4 to 10 uM for 24 hrs by Western blotting analysis; type: functional, cell-based; settings: dose 4-10 µM
[9] = Toxicity in immunocompetent C57BL/6J mouse allografted with B16-F10 cells assessed as change of organ index in thymus administered at 30 mg/kg, ip daily for 14 days by hematoxylin and eosin staining analysis; type: organism-based; settings: in vivo, 336 h, time 14 day
HeLa [10] = assay: Induction of apoptosis in human HeLa cells assessed as late apoptotic cells incubated at 6 uM for 24 hrs measured by annexin V-PI staining based FITC analysis (reference value: 1.81%); type: functional
HeLa [11] = assay: Induction of apoptosis in human HeLa cells assessed as necrotic cells preincubated with PFTalpha followed by compound addition at 10 uM for 24 hrs measured by annexin V-PI staining based FITC analysis (reference value: 0.79%); type: functional
HeLa [12] = assay: Induction of apoptosis in human HeLa cells assessed as late apoptotic cells incubated at 4 uM for 24 hrs measured by annexin V-PI staining based FITC analysis (reference value: 1.81%); type: functional
HeLa [13] = assay: Induction of apoptosis in human HeLa cells assessed as early apoptotic cells incubated at 10 uM for 24 hrs measured by annexin V-PI staining based FITC analysis (reference value: 2.72%); type: functional
HeLa [14] = assay: Induction of apoptosis in human HeLa cells assessed as early apoptotic cells preincubated with PFTalpha followed by compound addition at 10 uM for 24 hrs measured by annexin V-PI staining based FITC analysis (reference value: 2.72%); type: functional
HeLa [15] = assay: Induction of ROS generation in human HeLa cells assessed as increase in ROS level at 20 uM incubated for 1 hrs (reference value: 39.6%); type: functional
[16] = Toxicity in immunocompetent C57BL/6J mouse allografted with B16-F10 cells assessed as tissue damage in thymus administered at 30 mg/kg, ip daily for 14 days by hematoxylin and eosin staining analysis; type: organism-based; settings: in vivo, 336 h, time 14 day
[17] = Toxicity in immunocompetent C57BL/6J mouse allografted with B16-F10 cells assessed as change of organ index in liver administered at 30 mg/kg, ip daily for 14 days by hematoxylin and eosin staining analysis; type: organism-based; settings: in vivo, 336 h, time 14 day
HeLa [18] = assay: Induction of ROS generation in human HeLa cells assessed as increase in ROS level at 10 uM incubated for 0.5 hrs (reference value: 39.6%); type: functional
B16-F10 [19] = assay: Induction of ferroptosis in mouse B16-F10 cells assessed as downregulation of GPX4 level measured at 4 to 10 uM by Western blotting analysis; type: functional, cell-based; settings: dose 4-10 µM
HeLa [20] = assay: Induction of apoptosis in human HeLa cells assessed as late apoptotic cells incubated at 10 uM for 24 hrs measured by annexin V-PI staining based FITC analysis (reference value: 1.81%); type: functional
HeLa [21] = assay: Induction of apoptosis in human HeLa cells assessed as necrotic cells incubated at 8 uM for 24 hrs measured by annexin V-PI staining based FITC analysis (reference value: 0.70%); type: functional
B16-F10 [22] = assay: Cytotoxicity against mouse B16-F10 cells incubated for 72 hrs by MTT assay; type: functional, cell-based; settings: B16-F10, 72 h
HeLa [23] = assay: Induction of ferroptosis in human HeLa cells assessed as reduction of mitochondrion volume measured at 6 uM for 24 hrs by transmission electron microscopic analysis; type: functional, cell-based
HeLa [24] = assay: Induction of apoptosis in human HeLa cells assessed as early apoptotic cells incubated at 6 uM for 24 hrs measured by annexin V-PI staining based FITC analysis (reference value: 3.59%); type: functional
[25] = Toxicity in immunocompetent C57BL/6J mouse allografted with B16-F10 cells assessed as change in body weight administered at 30 mg/kg, ip daily for 14 days measured every 3 days; type: organism-based; settings: in vivo, 336 h, time 14 day
HeLa [26] = assay: Induction of apoptosis in human HeLa cells assessed as late apoptotic cells incubated at 10 uM for 24 hrs measured by annexin V-PI staining based FITC analysis (reference value: 2.3%); type: functional
[27] = Toxicity in immunocompetent C57BL/6J mouse allografted with B16-F10 cells assessed as change of organ index in lungs administered at 30 mg/kg, ip daily for 14 days by hematoxylin and eosin staining analysis; type: organism-based; settings: in vivo, 336 h, time 14 day
HeLa [28] = assay: Induction of apoptosis in human HeLa cells assessed as necrotic cells incubated at 4 uM for 24 hrs measured by annexin V-PI staining based FITC analysis (reference value: 0.70%); type: functional
[29] = Toxicity in immunocompetent C57BL/6J mouse allografted with B16-F10 cells assessed as change of organ index in kidney administered at 30 mg/kg, ip daily for 14 days by hematoxylin and eosin staining analysis; type: organism-based; settings: in vivo, 336 h, time 14 day
HeLa [30] = assay: Induction of apoptosis in human HeLa cells assessed as early apoptotic cells incubated at 10 uM for 24 hrs measured by annexin V-PI staining based FITC analysis (reference value: 3.59%); type: functional
[31] = Toxicity in immunocompetent C57BL/6J mouse allografted with B16-F10 cells assessed as change of organ index in spleen administered at 30 mg/kg, ip daily for 14 days by hematoxylin and eosin staining analysis; type: organism-based; settings: in vivo, 336 h, time 14 day
[32] = Toxicity in immunocompetent C57BL/6J mouse allografted with B16-F10 cells assessed as change of organ index in heart administered at 30 mg/kg, ip daily for 14 days by hematoxylin and eosin staining analysis; type: organism-based; settings: in vivo, 336 h, time 14 day
HeLa [33] = assay: Induction of apoptosis in human HeLa cells assessed as viable cells preincubated with PFTalpha followed by compound addition at 10 uM for 24 hrs measured by annexin V-PI staining based FITC analysis (reference value: 94.2%); type: functional; settings: read-out: Activity

## CCCCC/C=C/C(=O)O[C@@H]1C[C@H]2[C@@H](CCCC[C@H](O)CCC)CCC[C@H]2N[C@H]1C
HeLa [1]
  Activity: 4.68%
HeLa [2]
  Activity: 35.6%
HeLa [3]
  Activity: Active
HeLa [4]
  Activity: 31.9%
HeLa [5]
  Activity: 4.34%
HeLa [6]
  Activity: 22.7%
HeLa [7]
  Activity: 31.4%

## CCC/C=C/C=C/C(=O)O[C@@H]1C[C@H]2[C@@H](CCCC[C@H](O)CCC)CCC[C@H]2N[C@H]1C
HeLa [8]
  Activity: Active
[9]
  Activity: Non-Toxic
HeLa [10]
  Activity: 3.94%
HeLa [11]
  Activity: 3.94%
HeLa [12]
  Activity: 2.52%
HeLa [13]
  Activity: 31.8%
HeLa [14]
  Activity: 30.5%
HeLa [15]
  Activity: 90.1%
[16]
  Activity: Non-Toxic
[17]
  Activity: Non-Toxic
HeLa [18]
  Activity: 77.7%
B16-F10 [19]
  Activity: Active
HeLa [20]
  Activity: 5.53%
HeLa [21]
  Activity: 0.5%
B16-F10 [22]
  IC50: 3.14 µM
HeLa [23]
  Activity: Active
HeLa [24]
  Activity: 6.71%
[25]
  Activity: Non-Toxic
HeLa [26]
  Activity: 45.3%
[27]
  Activity: Non-Toxic
HeLa [28]
  Activity: 1.14%
[29]
  Activity: Non-Toxic
HeLa [30]
  Activity: 66.3%
[31]
  Activity: Non-Toxic
[32]
  Activity: Non-Toxic
HeLa [33]
  viability at 10 µM: 46%
